Laboratory results from PMC8199067, “Urolithin and Reduced Urolithin Derivatives as Potent Inhibitors of Tyrosinase and Melanogenesis: Importance of the 4-Substituted Resorcinol Moiety” (International Journal of Molecular Sciences, 2021).
Values joined by “and” are separate entries in the source; they are usually repeats but may differ in a detail not shown here. Equal entries are not always repeated. “Also recorded” adds a separate entry of the source. Where two headings read alike, the source gives them in different places. One block for each compound: values may come before it.

Assays:
[1] = biological target: T1, mushroom tyrosinase (Agaricus bisporus, UniProt C7FF04); test: Mushroom tyrosinase inhibitory assay (L-tyrosine substrate); format: biochemical; details: for Tyrosinase Inhibition (%) / inhibition at 50 µM: 50 μM, L-tyrosine as substrate, mean ± SEM, NI means no inhibition
Description: The experiment was repeated three times. Mushroom tyrosinase inhibitions % were calculated using:% Inhibition = [1 − (A/B)] × 100(1) where A is the absorbance of the test compound and B is the absorbance of the blank.
Log-linear curves were plotted, and their equations were determined.
Target sequence in this assay (C7FF04 1-392 limits assumed): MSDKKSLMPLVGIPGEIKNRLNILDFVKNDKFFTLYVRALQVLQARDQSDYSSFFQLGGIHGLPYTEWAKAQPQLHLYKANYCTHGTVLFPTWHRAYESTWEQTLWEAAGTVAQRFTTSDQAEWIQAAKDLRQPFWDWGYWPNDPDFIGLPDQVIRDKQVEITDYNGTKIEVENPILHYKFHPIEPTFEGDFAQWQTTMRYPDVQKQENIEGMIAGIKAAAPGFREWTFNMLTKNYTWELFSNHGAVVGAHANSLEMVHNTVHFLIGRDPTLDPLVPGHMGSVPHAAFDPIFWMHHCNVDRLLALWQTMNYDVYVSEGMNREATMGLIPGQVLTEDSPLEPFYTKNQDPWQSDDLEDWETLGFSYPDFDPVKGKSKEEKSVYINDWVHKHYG

[2] = biological target: T2, tyrosinase in B16F10 melanoma cells (Mus musculus, UniProt P11344); test: Cellular tyrosinase activity in α-MSH plus IBMX-stimulated B16F10 melanoma cells; details: 48 h
T2 sequence (P11344 19-533): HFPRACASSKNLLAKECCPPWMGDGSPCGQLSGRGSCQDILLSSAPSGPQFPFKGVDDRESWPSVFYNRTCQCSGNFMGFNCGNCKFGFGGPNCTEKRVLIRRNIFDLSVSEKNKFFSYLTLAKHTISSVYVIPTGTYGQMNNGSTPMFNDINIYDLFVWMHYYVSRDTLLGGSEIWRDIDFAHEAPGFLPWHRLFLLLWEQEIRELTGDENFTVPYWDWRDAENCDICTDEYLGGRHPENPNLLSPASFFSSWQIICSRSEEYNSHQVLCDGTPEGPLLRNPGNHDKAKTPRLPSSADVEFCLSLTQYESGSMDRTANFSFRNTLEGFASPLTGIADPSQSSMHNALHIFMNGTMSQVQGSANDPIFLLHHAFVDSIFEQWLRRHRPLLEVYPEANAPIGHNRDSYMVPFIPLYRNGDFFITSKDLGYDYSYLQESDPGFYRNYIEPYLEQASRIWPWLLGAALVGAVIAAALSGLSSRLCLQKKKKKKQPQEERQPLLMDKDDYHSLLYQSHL
Description: Cells were washed with PBS two or three times, lysed with a 100 μL of buffer (90 μL of PBS (50 mM), 5 μL of PMSF (0.1 mM), and 5 μL of 1% Triton X-100), frozen at −80 °C for 30 min, and centrifuged at 12,000 rpm for 30 min at 4 °C. Lysate supernatants (80 µL) were mixed with 20 µL of L-dopa (2 mg/mL) in a 96-well plate and incubated at 37 °C for 15 min. […] All the experiments were independently repeated three times.

[3] = biological target: T1, mushroom tyrosinase; test: Kinetic analysis of mushroom tyrosinase inhibition, Lineweaver–Burk plots; format: biochemical
Description: Briefly, 170 μL of a mixture of an aqueous solution of L-[…].0, 2.0, 4.0, or 8.0 mM and 50 mM of potassium phosphate (pH 6.5) was added to a 96-well plate. […] Lineweaver-Burk plots were used to determine Vmax (maximal reaction rates) and KM (Michaelis-Menten constants) of mushroom tyrosinase activities.
Target sequence in this assay (C7FF04 1-392): as the sequence (C7FF04 1-392 limits assumed) above

[4] = test system: B16F10 melanoma cells; test: EZ-cytox cell viability assay; format: cell-based, murine; details: 1–20 µM, 24 h
Description: EZ-cytox assays were performed to examine whether these compounds are cytotoxic.
B16F10 murine melanoma cells were purchased from the American Type Culture Collection (ATCC, Manassas, VA, USA). Cells were cultured in Dulbecco’s modified Eagle’s medium (10% fetal bovine serum (FBS), and 1% streptomycin) obtained from Gibco/Thermo Fisher Scientific (Carlsbad, CA, USA) at 37 °C in a 5% CO2 environment. These cultured cells were used for cell viability, melanin content, and cellular tyrosinase inhibitory assays.
EZ-cytox assays were performed on 1c, 1h, and 2a, according to previously described. B16F10 cells were seeded in a 96-well plate at a density of 5 × 10^4 cells/well and incubated at 37 °C in a humidified 5% CO2 atmosphere overnight. Cells were then treated with different concentrations of 1c, 1h, or 2a (0, 1, 2, 5, 10, or 20 µM) and incubated for 24 h under the same conditions. EZ-cytox solution (10 µL) was then added and the plate was incubated for 3 h at 37 °C in a humidified 5% CO2 atmosphere. Optical densities of wells were measured at 450 nm using an ELISA reader. All experiments were independently repeated three times.

[5] = test system: B16F10 melanoma cells; test: Melanin content assay in α-MSH plus IBMX-stimulated B16F10 melanoma cells; format: cell-based, murine; details: 48 h
Description: Melanin contents in B16F10 cells were assessed by measuring optical densities spectrophotometrically. […] After washing cells with PBS two or three times, they were incubated for 1 h in 100 µL of 1N NaOH solution at 60 °C. […] All experiments were independently repeated three times.

Structure (SMILES): O=c1oc2cc(O)cc(O)c2c2ccc(O)cc12 [Compound 1f, 1,3,8-Trihydroxy-6H-benzo[c]chromen-6-one]
Tyrosinase Inhibition (%) [1]: 12.68 ± 6.09% | inhibition at 50 µM [1]: 13%

Structure (SMILES): COc1ccc2c(c1)c(=O)oc1cc(O)ccc12 [Compound 1g, 3-Hydroxy-8-methoxy-6H-benzo[c]chromen-6-one]
inhibition at 50 µM [1]: < 0%

Structure (SMILES): COc1cc(OC)c2c(c1)oc(=O)c1cc(OC)ccc12 [Compound 1j, 1,3,8-Trimethoxy-6H-benzo[c]chromen-6-one]
inhibition at 50 µM [1]: < 0%

Structure (SMILES): COc1ccc2c(c1)oc(=O)c1cc(OC)ccc12 [Compound 1i, 3,8-Dimethoxy-6H-benzo[c]chromen-6-one]
inhibition at 50 µM [1]: < 0%

The next lines start with results.

Tyrosinase Inhibition (%) [1]: 19.78 ± 15.84% | inhibition at 50 µM [1]: 20%
Structure (SMILES): OCc1ccccc1-c1c(O)cc(O)cc1O [Compound 2c, 2′-(Hydroxymethyl)-[1,1′-biphenyl]-2,4,6-triol]

Mode of tyrosinase inhibition ([3]; Lineweaver–Burk analysis, L-tyrosine as substrate): competitive inhibitors | Vmax ([3]; inhibitor 10 μM, L-tyrosine 1.0–8.0 mM): 0.029 mM/min | Vmax ([3]; inhibitor 20 μM, L-tyrosine 1.0–8.0 mM): 0.029 mM/min | Vmax ([3]; inhibitor 40 μM, L-tyrosine 1.0–8.0 mM): 0.029 mM/min | Vmax ([3]; not dependent on inhibitor concentration): 0.029 mM/min | Inhibition (%), single determinations ([1]; 1.56 μM): 0.27% and 0.72% and 1.06% | inhibition at 1.56 µM ([1]; 1.56 μM, read-out: Average of Inhibition (%)): 0.68 ± 0.23% | inhibition at 3.13 µM ([1]; 3.13 μM, read-out: Average of Inhibition (%)): 15.1 ± 6.53% | Inhibition (%), single determinations ([1]; 6.25 μM): 31.66% and 31.22% | inhibition at 6.25 µM ([1]; 6.25 μM, read-out: Average of Inhibition (%)): 31.71 ± 0.3% | inhibition at 6.25 µM ([1]; 6.25 μM, read-out: Inhibition (%), single determinations): 32.2% | Inhibition (%), single determinations ([1]; 12.50 μM, 12.5 µM): 50.39% and 54.31% | inhibition at 12.5 µM ([1]; 12.50 μM, read-out: Average of Inhibition (%)): 53.5 ± 1.62% | inhibition at 12.5 µM ([1]; 12.50 μM, read-out: Inhibition (%), single determinations): 55.8% | Inhibition (%), single determinations ([1]; 25.00 μM): 68.71% and 69.37% | inhibition at 25 µM ([1]; 25.00 μM, read-out: Average of Inhibition (%)): 69.3 ± 0.32% | inhibition at 25 µM ([1]; 25.00 μM, read-out: Inhibition (%), single determinations): 69.8% | Tyrosinase Inhibition (%) [1]: 75.92 ± 2.19% | inhibition at 50 µM [1]: 76% | IC50 ([1]; mushroom tyrosinase, L-tyrosine, read-out: IC50): 15.7 ± 0.4 µM
Structure (SMILES): OCc1ccccc1-c1ccc(O)cc1O [Compound 2a, 2′-(Hydroxymethyl)-[1,1′-biphenyl]-2,4-diol]
Cellular tyrosinase activity ([2]; 10 μM, α-MSH plus IBMX, kojic acid 20 μM as comparator): greater at 10 μM than kojic acid at 20 μM | Cellular tyrosinase activity ([2]; 20 μM, α-MSH plus IBMX, kojic acid 20 µM as comparator): much higher than that of kojic acid; also recorded: reduced tyrosinase activity to the untreated control levels | Cellular tyrosinase activity ([2]; 5, 10, 20 μM, α-MSH (1 μM) plus IBMX (200 μM)): more strongly than KA; also recorded: decreased significantly and concentration-dependently; also recorded: effectively and dose-dependently | Cytotoxic effect [4]: No significant cytotoxic effect; also recorded: not cytotoxic | Melanin content ([5]; 5 µM, kojic acid 20 µM as comparator): more potently than kojic acid | Melanin content ([5]; 20 μM, kojic acid 20 µM as comparator): more so than kojic acid | Melanin content ([5]; 5, 10, 20 μM): more strongly than KA; also recorded: reduced melanin levels significantly and concentration-dependently; also recorded: effectively and dose-dependently

inhibition at 50 µM [1]: < 0%
Structure (SMILES): COc1ccc(-c2c(O)cc(OC)cc2OC)c(CO)c1 [Compound 2i, 2′-(Hydroxymethyl)-4,4′,6-trimethoxy-[1,1′-biphenyl]-2-ol]

inhibition at 50 µM [1]: < 0%
Structure (SMILES): COc1cc(O)c(-c2ccccc2CO)c(OC)c1 [Compound 2d, 2′-(Hydroxymethyl)-4,6-dimethoxy-[1,1′-biphenyl]-2-ol]
